From ChEMBL document CHEMBL1201862, “PubChem BioAssay data set” (2004)
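Interpolation was linear, between the two tested concentrations surrounding the appropriate level; five concentrations were tested over 48 hours in 96-well plates. GI50 is the concentration that inhibits growth by half.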 The source made the active and inactive calls. Rule as the data show it: active = GI50 up to about 1.1 µM and inactive = higher.

Key:
Experiment in all cases: DTP human tumour cell line panel, 48 h
A549 = system: A549
CCRF-CEM = system: CCRF-CEM
EKVX = system: EKVX
HL-60 = system: HL-60
K562 = system: K562
NCI-H460 = system: NCI-H460
OVCAR-8 = system: OVCAR-8
RXF 393 = system: RXF 393
SF-268 = system: SF-268
SF-295 = system: SF-295
SK-MEL-5 = system: SK-MEL-5
SK-OV-3 = system: SK-OV-3
SNB-19 = system: SNB-19
SR = system: SR
SW-620 = system: SW-620
A498 = system: A498
OVCAR-3 = system: OVCAR-3

Row | SMILES | GI50 (A549) | GI50 (CCRF-CEM) | GI50 (EKVX) | GI50 (HL-60) | GI50 (K562) | GI50 (NCI-H460) | GI50 (OVCAR-8) | GI50 (RXF 393) | GI50 (SF-268) | GI50 (SF-295) | GI50 (SK-MEL-5) | GI50 (SK-OV-3) | GI50 (SNB-19) | GI50 (SR) | GI50 (SW-620) | GI50 (A498) | GI50 (OVCAR-3)
1 | Cc1ccc(NC(=O)CSc2nnc(Cc3ccccc3)o2)c(C)c1 | > 100 µM (inactive) | > 100 µM (inactive) | > 100 µM (inactive) | > 100 µM (inactive) | > 100 µM (inactive) | > 100 µM (inactive) | > 100 µM (inactive) | > 100 µM (inactive) | > 100 µM (inactive) | > 100 µM (inactive) | > 100 µM (inactive) | > 100 µM (inactive) | > 100 µM (inactive) | > 100 µM (inactive) | > 100 µM (inactive) |  | 
2 | C/C(=N/NC(N)=S)c1ccc2ccccc2c1 | 24.4 µM (inactive) | 22.5 µM (inactive) | 0.443 µM (active) | 15 µM (inactive) |  | 24.2 µM (inactive) | 32.9 µM (inactive) | 35.3 µM (inactive) | 23.3 µM (inactive) | 29.4 µM (inactive) | 14.2 µM (inactive) | 21.9 µM (inactive) | 83.2 µM (inactive) | 74.5 µM (inactive) | 33.3 µM (inactive) | 42.4 µM (inactive) | 30.4 µM (inactive)
3 | CCc1cccc(C(C)C)c1N1C(=O)C(=O)C(c2nc3ccccc3s2)C(=O)C1=O | > 50 µM (inactive) | 11.3 µM (inactive) | > 50 µM (inactive) | 12.3 µM (inactive) | 16.3 µM (inactive) | > 50 µM (inactive) | > 35.2 µM (inactive) | > 50 µM (inactive) | > 50 µM (inactive) | > 39.4 µM (inactive) | 21.8 µM (inactive) | > 50 µM (inactive) | > 50 µM (inactive) |  | 32.7 µM (inactive) | > 50 µM (inactive) | > 25.5 µM (inactive)
4 | CC(C)(CN1CCOCC1)C(=O)/C=C/c1ccc(/C=C/C(=O)C(C)(C)CN2CCOCC2)cc1 | 2.89 µM (inactive) | 1.36 µM (inactive) | 1.65 µM (inactive) | 1.45 µM (inactive) | 0.239 µM (active) | 3.5 µM (inactive) | 1.45 µM (inactive) | 1.83 µM (inactive) | 1.59 µM (inactive) | 2.21 µM (inactive) | 1.79 µM (inactive) | 3.85 µM (inactive) | 1.55 µM (inactive) |  | 1.01 µM (active) | 1.97 µM (inactive) | 1.07 µM (active)
5 | Cc1cn2cc(-c3ccncc3)nc2s1 | > 100 µM (inactive) | > 52.7 µM (inactive) | > 100 µM (inactive) | > 19.8 µM (inactive) | > 51.8 µM (inactive) | > 100 µM (inactive) | > 100 µM (inactive) |  | > 100 µM (inactive) | > 100 µM (inactive) | > 100 µM (inactive) | > 100 µM (inactive) | > 100 µM (inactive) |  | > 50 µM (inactive) | > 100 µM (inactive) | > 100 µM (inactive)
6 | c1ccc(P(=Nc2ccccc2N=P(c2ccccc2)(c2ccccc2)c2ccccc2)(c2ccccc2)c2ccccc2)cc1 | 0.305 µM (active) | 1.3 µM (inactive) | 1.21 µM (inactive) | 1.08 µM (active) | 1.09 µM (active) | 0.528 µM (active) | 0.364 µM (active) | 1.05 µM (active) | > 100 µM (inactive) | 1.11 µM (active) | 0.401 µM (active) | 0.327 µM (active) | 0.333 µM (active) |  | 3.07 µM (inactive) | 0.986 µM (active) | 0.164 µM (active)
7 | O=C(N/C(=C\c1ccc(/C=C(\NC(=O)c2ccccc2)c2nc3cc([N+](=O)[O-])ccc3[nH]2)cc1)c1nc2cc([N+](=O)[O-])ccc2[nH]1)c1ccccc1 | 31 µM (inactive) | 20.8 µM (inactive) | 32.9 µM (inactive) |  | 18.3 µM (inactive) |  | 34.9 µM (inactive) | 24 µM (inactive) | 22.1 µM (inactive) | 43.1 µM (inactive) | 22.2 µM (inactive) | > 100 µM (inactive) | > 100 µM (inactive) |  | 55.7 µM (inactive) | 26 µM (inactive) | 39.6 µM (inactive)
8 | Cc1ccc(NCCO)cc1 | > 100 µM (inactive) | > 100 µM (inactive) | > 100 µM (inactive) | > 100 µM (inactive) | 55 µM (inactive) | > 100 µM (inactive) | > 100 µM (inactive) |  | > 100 µM (inactive) | > 100 µM (inactive) | > 100 µM (inactive) | > 100 µM (inactive) | > 100 µM (inactive) | > 100 µM (inactive) | > 100 µM (inactive) |  | > 100 µM (inactive)
9 | Oc1ccc(C2Oc3cc(O)cc4c3C2c2cc(O)cc3c2C(c2cc(O)cc5c2C4C(c2ccc(O)cc2)O5)C(c2ccc(O)cc2)O3)cc1 (centres undefined) | > 25 µM (inactive) | 5.78 µM (inactive) | > 25 µM (inactive) | 0.834 µM (active) | 7 µM (inactive) | 12.6 µM (inactive) | 6.61 µM (inactive) |  | 5.12 µM (inactive) |  | 10.9 µM (inactive) |  | 4.78 µM (inactive) | 6.35 µM (inactive) | 7.73 µM (inactive) | > 25 µM (inactive) | 7 µM (inactive)
10 | COC(=O)C(Cc1cc(OC)c(OC)c(OC)c1)C(=O)OC | > 320 µM (inactive) | > 320 µM (inactive) | > 320 µM (inactive) | > 320 µM (inactive) | > 320 µM (inactive) | > 320 µM (inactive) | > 320 µM (inactive) | > 320 µM (inactive) | > 320 µM (inactive) | > 320 µM (inactive) | > 320 µM (inactive) | > 320 µM (inactive) |  | > 320 µM (inactive) | > 320 µM (inactive) |  | > 320 µM (inactive)
11 | Cc1cc(Cl)ccc1NC(=O)CC1SC(NC(=O)c2ccccc2Cl)=NC1=O (centres undefined) | 81.7 µM (inactive) | 2.86 µM (inactive) | > 100 µM (inactive) | 2.19 µM (inactive) | 17 µM (inactive) | > 100 µM (inactive) | > 100 µM (inactive) | 17.7 µM (inactive) | 16.9 µM (inactive) | > 100 µM (inactive) | 30.8 µM (inactive) |  | > 100 µM (inactive) | 15.3 µM (inactive) | 18 µM (inactive) | > 100 µM (inactive) | 17.5 µM (inactive)
12 | c1ccc2c(c1)nnn1c3cnccc3nc21 | 30.9 µM (inactive) | 9.53 µM (inactive) | 51.6 µM (inactive) | 8.87 µM (inactive) | 21.6 µM (inactive) | 16 µM (inactive) | 30 µM (inactive) | 24.7 µM (inactive) | 37.8 µM (inactive) | 77.1 µM (inactive) | 52.6 µM (inactive) | 42.2 µM (inactive) | 47.6 µM (inactive) |  | 32.4 µM (inactive) | 94 µM (inactive) | 18.9 µM (inactive)
13 | COc1cccc(NC(=O)/C(CC(=O)CC(c2ccccc2)c2c(O)c3ccccc3oc2=O)=N\NC(C)(C)C)c1OC (centres undefined) | 87.7 µM (inactive) | 25.7 µM (inactive) | 43.4 µM (inactive) | 22.5 µM (inactive) | 44.9 µM (inactive) | > 100 µM (inactive) | > 100 µM (inactive) |  | > 100 µM (inactive) | > 100 µM (inactive) | > 100 µM (inactive) | > 100 µM (inactive) | > 100 µM (inactive) |  | > 100 µM (inactive) | > 100 µM (inactive) | 78.9 µM (inactive)
14 | CCOC(=O)/C=C1\Nc2ccccc2C(c2ccccc2)=NC1OC(C)=O (centres undefined) | > 100 µM (inactive) | > 100 µM (inactive) | > 100 µM (inactive) | 81.5 µM (inactive) | 97.1 µM (inactive) | > 100 µM (inactive) | > 100 µM (inactive) |  | > 100 µM (inactive) | > 100 µM (inactive) | > 100 µM (inactive) | > 100 µM (inactive) |  | 99.1 µM (inactive) | > 100 µM (inactive) | > 100 µM (inactive) | > 100 µM (inactive)
15 | O=C(Cc1nc2ccc([N+](=O)[O-])cc2nc1O)C(=O)Nc1ccccc1[N+](=O)[O-] | > 100 µM (inactive) | > 100 µM (inactive) | > 100 µM (inactive) | > 100 µM (inactive) | > 100 µM (inactive) | > 100 µM (inactive) |  | > 100 µM (inactive) | > 100 µM (inactive) | > 100 µM (inactive) | > 100 µM (inactive) | > 100 µM (inactive) | > 100 µM (inactive) |  | > 100 µM (inactive) | > 100 µM (inactive) | > 100 µM (inactive)
16 | COC(=O)c1cc(Cl)ccc1NC(=O)c1ccc([N+](=O)[O-])cc1 | 19.6 µM (inactive) | 22.8 µM (inactive) | 31.8 µM (inactive) | 27.4 µM (inactive) | 26.9 µM (inactive) | 42.3 µM (inactive) | 15.9 µM (inactive) | 21.4 µM (inactive) |  | 2.42 µM (inactive) | 47.5 µM (inactive) | 19.7 µM (inactive) |  |  | 29.9 µM (inactive) | 17.5 µM (inactive) | 15.6 µM (inactive)
17 | O=C1CCC2(c3ccccc3)Nc3ccc(Cl)cc3N12 (centres undefined) | > 100 µM (inactive) | > 100 µM (inactive) | > 100 µM (inactive) | > 100 µM (inactive) | 77.8 µM (inactive) | > 100 µM (inactive) | > 100 µM (inactive) | > 100 µM (inactive) | > 100 µM (inactive) | > 100 µM (inactive) | > 100 µM (inactive) | > 100 µM (inactive) |  |  | > 100 µM (inactive) | > 100 µM (inactive) | > 100 µM (inactive)
18 | C=CCCCCCCCCC(=O)O [UNDECYLENIC ACID] | 103 µM (inactive) | 128 µM (inactive) | 116 µM (inactive) | 101 µM (inactive) | 152 µM (inactive) | 94.2 µM (inactive) | 121 µM (inactive) | 93.1 µM (inactive) | 91 µM (inactive) | 109 µM (inactive) | 93.8 µM (inactive) | 138 µM (inactive) | 150 µM (inactive) |  | 125 µM (inactive) | 0.798 µM (active) | 67 µM (inactive)
